Data on two compounds can be found in patent US7740882B2, “Enhanced oral and transcompartmental delivery of therapeutic or diagnostic agents” (priority 2001, dated 2010).

Data set [1] deals with bovine brain microvessel endothelial cells (BBMECs). Nature of the data set: Transport (permeability) across BBMEC monolayers, in vitro BBB model. As to conditions: read-out: Km of transport and uptake; BBMECs. As for the experimental part:
Non-biotinylated PEGs were used in the control studies.
Isolation and culture of BBMECs. Bovine Brain Microvessel Endothelial Cells (BBMECs) were used as an in vitro model of BBB. BBMECs were isolated from bovine brain by a two-step enzymatic method and the cells were cultured on collagen coated Transwell™ plates or polystyrene plates in an atmosphere of 95% air and 5% CO2 at 37° C. Transendothelial electrical resistance (TEER) and several molecular markers were used to validate the integrity of the cell culture system.
The cells were cultured on 12-well Transwell™ filters for 7-8 days and transport was evaluated. […] All studies were performed at 37° C.

The target in data set [2] is T1, human sodium dependent multivitamin transporter, hSMVT (Homo sapiens, UniProt Q9Y289).
T1 sequence (Q9Y289 1-635): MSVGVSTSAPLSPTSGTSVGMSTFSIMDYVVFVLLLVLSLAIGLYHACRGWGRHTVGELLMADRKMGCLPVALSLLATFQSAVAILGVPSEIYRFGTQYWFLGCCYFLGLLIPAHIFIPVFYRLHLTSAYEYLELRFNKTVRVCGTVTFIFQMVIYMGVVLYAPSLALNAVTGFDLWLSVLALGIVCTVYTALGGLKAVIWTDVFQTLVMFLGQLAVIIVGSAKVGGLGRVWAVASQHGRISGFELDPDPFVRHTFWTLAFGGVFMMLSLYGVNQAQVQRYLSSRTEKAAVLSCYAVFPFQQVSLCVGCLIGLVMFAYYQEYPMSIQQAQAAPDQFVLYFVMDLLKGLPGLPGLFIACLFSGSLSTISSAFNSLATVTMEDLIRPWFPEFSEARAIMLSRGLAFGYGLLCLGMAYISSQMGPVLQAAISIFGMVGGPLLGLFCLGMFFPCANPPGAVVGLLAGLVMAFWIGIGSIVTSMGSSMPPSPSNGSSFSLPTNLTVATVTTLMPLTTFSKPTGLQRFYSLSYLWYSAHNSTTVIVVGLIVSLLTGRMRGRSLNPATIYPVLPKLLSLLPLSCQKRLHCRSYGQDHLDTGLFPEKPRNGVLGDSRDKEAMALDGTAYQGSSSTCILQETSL
Nature of the data set: Uptake in CHO cells transiently transfected with hSMVT (CHO/hSMVT). The conditions noted are these: for Pm, passive uptake component: CHO/hSMVT cellular uptake, (S.D), n = 3. As for the experimental part:
(§1) CHO Cell Uptake Studies CHO cells transiently transfected with hSMVT (CHO/hSMVT) were washed twice with 25 mM uptake buffer, containing 25 mM Hepes/Tris pH 7.5, 140 mM NaCl, 5.4 mM KCl, 1.8 CaCl2, 0.8 mM MgSO4 and 5 mM glucose, approximately 48 hours post-transfection. Subsequently, the cells were incubated with the permeant at 37° C. for 10 minutes. Uptake was stopped by washing the cells thrice with ice-cold buffer. Non-specific uptake was measured in parallel experiments with the control pSPORT vector-transfected CHO cells. Finally, the cells were solubilized by 0.1% v/v Triton X-100, and 0.6 ml was used for scintillation counting. From the remaining volume, 10 μl of solution was taken from each well and protein concentration was determined using the Bio-Rad reagent according to the Bradford technique [M. Bradford, A rapid and sensitive method of quantitation of microgram quantities of protein utilizing the principle of protein-dye binding, Anal. Biochem. 72 (1976) 248]. Bovine serum albumin was used as the standard.
Parallel uptake experiments were performed using CHO/pSPORT control cells.
as §1, with “hSMVT” for “hSMVT (CHO/hSMVT)”, “glucose.” for “glucose, approximately 48 hours post-transfection.”, “Washing” for “Uptake was stopped by washing”, “three times” for “thrice”, “buffer stopped drug uptake.” for “buffer.”, “manufacturer's instructions.” for “Bradford technique [M. Bradford, A rapid and sensitive method of quantitation of microgram quantities of protein utilizing the principle of protein-dye binding, Anal. Biochem. 72 (1976) 248].”
as §1, with “Studies.” for “Studies”, “glucose.” for “glucose, approximately 48 hours post-transfection.”, “manufacturer's instructions.” for “Bradford technique [M. Bradford, A rapid and sensitive method of quantitation of microgram quantities of protein utilizing the principle of protein-dye binding, Anal. Biochem. 72 (1976) 248].”

A further data set deals with TAR RNA. The conditions noted are these: unpublished results of the inventors.
The test system of a further data set is Caco-2 cell monolayers. Nature of the data set: Absorptive (AP to BL) transport across Caco-2 cell monolayers. As to conditions: Caco-2 absorptive transport. On the technique in general: Caco-2 monolayers are a common model of the intestinal barrier.
The test system of the next data set is CHO/pSPORT cells. Description: Non-specific uptake in vector-transfected control CHO/pSPORT cells. As for the experimental part:
as §1, with “From the remaining volume, 10 μl of solution was taken from each well and protein concentration was determined using the Bio-Rad reagent according to the Bradford technique [M. Bradford, A rapid and sensitive method of quantitation of microgram quantities of protein utilizing the principle of protein-dye binding, Anal. Biochem. 72 (1976) 248].” left out
CHO Cell Uptake Studies CHO cells transiently transfected with hSMVT were washed twice with 25 mM uptake buffer, containing 25 mM Hepes/Tris pH 7.5, 140 mM NaCl, 5.4 mM KCl, 1.8 CaCl2, 0.8 mM MgSO4 and 5 mM glucose. […] Non-specific uptake was measured in parallel experiments with the control pSPORT vector-transfected CHO cells. […] From the remaining volume, 10 μl of solution was taken from each well and protein concentration was determined using the Bio-Rad reagent according to the manufacturer's instructions. […]
CHO Cell Uptake Studies. […] Non-specific uptake was measured in parallel experiments with the control pSPORT vector-transfected CHO cells. […]

For data set [3], the system named is human intestinal brush-border membrane vesicles. As to conditions: read-out: Km of biotin transport; literature; cited from earlier work.
Data set [4] concerns colonic epithelial NCM460 cells. The conditions noted are these: read-out: Km of biotin transport; literature; cited from earlier work.
Another data set concerns rat small intestine. As to conditions: read-out: Km of biotin transport; literature; cited from earlier work.
The nature of the next data set: in vitro. The conditions noted are these: human, Caco-2.
The target in another data set is T2, SMVT (Homo sapiens, UniProt Q9Y289).
T2 sequence (Q9Y289 1-635): T1 sequence (Q9Y289 1-635)
Description: Inhibition of substrate uptake in CHO/hSMVT cells by 50 μM SMVT substrates. It is filed as in vitro ADME. The arrangement: expressed in transfected cells; host or cells: CHO cells (ATCC), transient Lipofectamine transfection; plasmid was a gift of Dr. Puttur D. Prasad.

Several values for one entry are separate records, joined by “and”; a condition that tells them apart may be missing. Equal entries are not always repeated. Entries after “also recorded” stand apart in the source; their conditions may differ.

By Km is commonly meant the substrate concentration at which the rate is half of its maximum. One may read the Papp as the rate of passage across a membrane or cell layer, normalised by area and donor concentration. High values mean fast passage, low ones slow passage.

Description for Caco-2 cell monolayers: Caco-2 Cell Transport Studies An Ussing-type diffusion chamber system (Harvard Apparatus, Natick, Mass.) was used to perform transport studies. The apical solution was a MES Ringer's buffer (pH 6.5) consisting of 114.0 mM NaCl, 5.0 mM KCl, 1.1 mM MgSO4, 1.25 mM CaSO4, and 15 mM 2-(N-morpholino)ethanesulfonic acid (MES). The basolateral solution was a Ringer's buffer (pH 7.4) consisting of 114.0 mM NaCl, 5.0 mM KCl, 1.65 mM Na2HPO4, 0.3 mM NaH2PO4, 25 mM NaHCO3, 1.1 mM MgSO4, and 1.25 mM CaSO4. Both buffers contained 25 mM glucose and were adjusted to 290 mOsm/kg using a vapor pressure osmometer (Wescor Inc, Logan, Utah). For transport experiments using filters with cell monolayers, the inserts were rinsed with Ringer's buffet containing 25 mM glucose three times over a 20 min period at room temperature. The TEER was measured for each monolayer before it was mounted onto the diffusion chamber, which was pre-warmed to 37° C. by placement on the heating blocks. The volume of each half-chamber was 5 ml and the surface area of the Snapwell™ filters available for drug transport was 1 cm^2. […] The donor solution consisted of radiolabeled permeant in the apical buffer [apical (AP) to basolateral (BL) study]. Starting at 30 min, samples were taken from the receptor chamber every 15 min until the end of the experiment (105 min). A minimum of three monolayers was used to determine the permeability of test compound in each study and sample analysis was performed using scintillation counting (Perkin Elmer, Gaithersburg, Md.).
The Michaelis-Menten kinetic parameters of Caco-2 and CHO cell transport were then estimated using non-linear regression.
Prior to experimentation, diffusion chambers mounted with the Snapwells™ containing Caco-2 cells were equilibrated at 5° C., 10° C., 15° C., 25° C. and 37° C.
[formula] where Pe is the effective permeability of the substrate transported, Cs is the substrate concentration and Pm and Pc represent the passive and carrier-mediated component of the permeability. All data were initially fitted to a 3-parameter model (Pc, Pm, Km for Caco-2 studies, Jmax, Pm, Km for CHO studies).
Caco-2 Cell Transport Studies An Ussing-type diffusion chamber system (Harvard Apparatus, Natick, Mass.) was used to perform transport studies. The apical solution was a MES Ringer's buffer (pH 6.5) consisting of 114.0 mM NaCl, 5.0 mM KCl, 1.1 mM MgSO4, 1.25 mM CaSO4, and 15 mM 2-(N-morpholino)ethanesulfonic acid (MES). The basolateral solution was a Ringer's buffer (pH 7.4) consisting of 114.0 mM NaCl, 5.0 mM KCl, 1.65 mM Na2HPO4, 0.3 mM NaH2PO4, 25 mM NaHCO3, 1.1 mM MgSO4, and 1.25 mM CaSO4. Both buffers contained 25 mM glucose and were adjusted to 290 mOsm/kg using a vapor pressure osmometer (Wescor Inc, Logan, Utah). For transport experiments using filters with cell monolayers, the inserts were rinsed with Ringer's buffer containing 25 mM glucose three times over a 20 min period at room temperature. The TEER was measured for each monolayer before it was mounted onto the diffusion chamber, which was pre-warned to 37° C. by placement on the heating blocks.

For “N-acetyl-D-Lys:(ε-biotin)-D-Arg-D-Arg-D-Arg-D-Gln-D-Arg-D-Arg-D-Lys-D-Lys-D-Arg-NH2 [RI-K(biotin)-Tat9]”, the Km in data set [1] was ~40 µM; in [2] (uptake in CHO/hSMVT cells, 10 min, 37° C.), 1 ± 0.13 µM; with Caco-2 cell monolayers, 3.27 µM. In addition, the “Jmax without Pm component in the regression model” value in data set [2] (CHO/hSMVT) is listed as 675.95 pmol/mg protein/10 min. Further, the “Pm, passive uptake component” value in data set [2] is 32.90 (4.48) pmol/mg protein/10 min. The “uptake of substrate alone (control of inhibition study)” value in [2] (CHO/hSMVT, 0.1 μM, 10 min) is on record as ~41.93 pmol/mg protein/10 min. In data set [2] (CHO/hSMVT, at 10 μM), the “uptake, fold greater than RI-K-Tat9” value is on record as ~500 fold. For the same compound, in [2] (uptake in CHO/hSMVT cells), the Jmax was 227.26±29.33 pmol/mg protein/10 min and 227.26 pmol/mg protein/10 min and 227.26 (29.33) pmol/mg protein/10 min. Also, the “TAR RNA binding activity” value with TAR RNA is “comparable TAR RNA binding activity to Tat9-K(biotin)”.
Regarding `O=C(O)CCCC[C@@H]1SC[C@@H]2NC(=O)N[C@@H]21` [Biotin, biotin], the “Pm, passive uptake component” value in data set [2] is given as 3.50 (3.0) pmol/mg protein/10 min. Further, in data set [2] (uptake in CHO/hSMVT cells), the Jmax was 174.61±47.53 pmol/mg protein/10 min and 174.61 (47.53) pmol/mg protein/10 min. In the data set on CHO/pSPORT cells, the “uptake in CHO/pSPORT cells” value is reported as 23.73 pmol/mg protein/10 min. For the same compound, the Km in [3] is 5.26 µM; in data set [4], 19.7 µM; in the data set on rat small intestine, 8.77 µM; in the data set on Caco-2 cell monolayers, 11.3 µM. Also, in “in vitro”, the Papp at 105 min worked out at 3.35 ×10⁻⁶ cm/s. In addition, the “inhibition of RI-K(biotin)-Tat9 uptake” value against SMVT (0.1 μM RI-K(biotin)-Tat9, inhibitor 50 μM) is listed as “significantly inhibited; also recorded: significantly lowered (p<0.001)”. The “inhibition of biotin-PEG-3400 uptake” value at SMVT (0.1 μM biotin-PEG-3400, inhibitor 50 μM) is reported as “significantly (p<0.01) inhibited”. Moreover, the “inhibition of PEG:(RI-K(biotin)-Tat9)8 uptake” value at SMVT (0.1 μM conjugate, inhibitor 50 μM) is “significantly lower (p<0.05)”.
